Measurements published in patent US7589123B2, “Chemical compounds” (Phytopharm PLC, priority 2006, dated 2009).

Columns and labels:
[1] = tested on: IL-1α-induced PGE2 release; experiment: IL-1α-induced PGE2 release in human diploid lung fibroblasts (WI-38) (Assay 5); assay type: cell-based; conditions: Homo sapiens, WI-38 cells, IL-1α 1 nM, overnight
Method: (§1) Human diploid lung fibroblasts (WI-38 cells) were incubated overnight in the presence of IL-1α (1 nM) and test compound (3 and 30 μM) in modified Eagle medium at pH 7.3 containing foetal bovine serum (10%) at 37° C. The supernatant was assayed by radioimmunoassay for released PGE2 and the inhibition of PGE2 by test compound calculated (Table 10). The viability of the cells was then assessed by washing with Roswell Park Memorial Institute medium and adding Alamar Blue reagent before being incubated at 37° C. for 4 h. Living cells take up Alamar Blue and emit fluorescence when excited. Fluorescence intensity was measured using a SpectroFluor Plus plate reader with excitation at 530 nm and emission at 590 nm (Table 10).

5-lipoxygenase = target: T1, 5-lipoxygenase (Homo sapiens, UniProt P09917); experiment: 5-lipoxygenase activity (LTB4) in human peripheral blood mononuclear leukocytes (Assay 6); assay type: cell-based; conditions: human PBMLs, A23187 30 μM, read-out: Inhibition of 5-LO (%)
T1 construct: endogenous in cells; host or cells: human peripheral blood mononuclear leukocytes (PBMLs)
T1 sequence (P09917 1-674): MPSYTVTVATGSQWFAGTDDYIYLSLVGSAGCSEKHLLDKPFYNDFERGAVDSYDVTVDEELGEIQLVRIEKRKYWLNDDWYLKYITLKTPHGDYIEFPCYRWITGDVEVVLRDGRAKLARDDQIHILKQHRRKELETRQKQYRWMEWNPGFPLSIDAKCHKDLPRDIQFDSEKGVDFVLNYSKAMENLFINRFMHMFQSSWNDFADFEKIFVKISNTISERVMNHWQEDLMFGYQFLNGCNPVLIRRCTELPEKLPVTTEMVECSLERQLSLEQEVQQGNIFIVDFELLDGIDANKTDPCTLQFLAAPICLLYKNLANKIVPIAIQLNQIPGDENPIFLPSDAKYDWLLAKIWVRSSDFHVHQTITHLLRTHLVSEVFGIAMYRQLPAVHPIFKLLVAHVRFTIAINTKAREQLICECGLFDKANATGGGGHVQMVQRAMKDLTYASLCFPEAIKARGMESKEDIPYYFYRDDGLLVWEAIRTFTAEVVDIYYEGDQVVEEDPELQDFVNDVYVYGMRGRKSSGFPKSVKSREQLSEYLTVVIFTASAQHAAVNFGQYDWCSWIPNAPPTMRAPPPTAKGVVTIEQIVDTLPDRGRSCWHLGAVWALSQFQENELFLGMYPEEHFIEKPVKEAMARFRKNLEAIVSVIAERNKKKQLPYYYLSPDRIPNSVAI
Method: Human peripheral blood mononuclear leukocytes (PBMLs) were isolated using a Ficoll-Paque density gradient. Human peripheral blood mononuclear leukocytes (5×10^6 cells) were incubated with A23187 (30 μM), a divalent cation ionophore used to initiate the biosynthesis of […], and with vehicle (0.1% DMSO) or test compound (3 and 30 μM) in Hank's balanced salt solution (HBBS) buffer, pH 7.4 at 37° C. for 15 min. The PBML solution was neutralized with NaOH (1 N) and centrifuged at 1000 g for 10 min and the supernatant collected. The concentration of leukotriene B4 (LTB4) in the supernatant was measured using an enzyme immunoassay kit (Assay Design Inc.). A reduction in the concentration of LTB4 indicated an inhibition of the enzyme 5-lipoxygenase (Table 11).

WI-38 cells = experiment: Viability of WI-38 cells, Alamar Blue (Assay 5); assay type: cell-based, human
Method: as §1

[2] = tested on: histamine-induced contractions in guinea pig ileum; experiment: Inhibition of histamine-induced contractions in guinea pig ileum (Assay 3); conditions: Cavia porcellus, histamine 1.7 μM, read-out: Inhibition of histamine-induced contraction (%)
Method: (§2) Duncan Hartley derived male guinea pigs (325±25 g) were suppressed by CO2 overexposure, the abdominal cavity was exposed and ileal segments were removed. Small strips of ileum were suspended in organ baths containing Krebs solution (composition in g/l: NaCl 6.89, KCl 0.35, CaCl2 0.277, KH2PO4 0.163, MgSO4.7H2O 0.296, NaHCO3 2.1 glucose 1.8). The solution was kept at 32° C. and gassed with O2 (95%)-CO2 (5%) to maintain pH at 7.4. Mechanical activity was recorded by means of isotonic transducers. A resting tension of 1 g was applied to muscle strips before being equilibrated for 1 h, prior to test compound addition. Each preparation was washed twice at 15 min intervals during the equilibration.
(§3) Histamine (1.7 μM; approximately EC60-70) or 5-hydroxytryptamine (5-HT, 2.6 μM; approximately EC60-70) was applied for 5 min and the amplitude of the contraction recorded. The histamine or 5-HT was then washed out until the ileal tissue returned to baseline. Five min after returning to baseline test compound (3 and 30 μM) was applied and the amplitude of the contraction (if any) was recorded. In the continuous presence of test compound, histamine or 5-HT was re-applied and the inhibition of the response was recorded.

TRPV1 receptor = TRPV1 receptor (Rattus norvegicus, UniProt O35433); experiment: TRPV1 modulation in DRG neurones: CGRP release in absence and presence of capsaicin (Assay 2); assay type: cell-based; design: The culture used for this experiment contained sensory neurones, Schwann cells and fibroblasts; endogenous in cells; host or cells: primary rat DRG sensory neurone culture (with Schwann cells and fibroblasts); conditions: 20 min; for inhibition at 3 µM: 3 μM with capsaicin 1 μM; for inhibition at 3 µM / inhibition at 30 µM: −ve: inhibition, +ve: potentiation of capsaicin response, read-out: Effect of test compounds on capsaicin (1 μM)-induced CGRP release (%); for inhibition at 30 µM: 30 μM with capsaicin 1 μM; for Emax at 3 µM: test compound alone 3 μM; for Emax at 3 µM / Emax at 30 µM: rat DRG sensory neurones, read-out: CGRP release (% of capsaicin (1 μM) response); for Emax at 30 µM: test compound alone 30 μM
[3] = tested on: α-smooth muscle actin (α-SMA) mRNA; experiment: Anti-remodelling activity in human lung fibroblasts (HFL1): TGFβ-induced α-SMA mRNA (Assay 4); assay type: cell-based; conditions: Homo sapiens, HFL1 cells, TGFβ 10 ng/ml, 24 h, read-out: Inhibition of α-SMA mRNA synthesis (%)
Method: A human foetal lung fibroblast cell line (HFL1 cells; ATCC accession number CCl-153) was used in this assay. The cells were cultured in medium containing a low level of foetal bovine serum (FBS; 0.1%) for 24 h. After 24 h of culturing the medium was changed to: (a) Control medium (medium containing 10% FBS, 1% phosphate saline and 0.5 mM L-glutamine), (b) Control medium and transforming growth factor beta (TGFβ; 10 ng/ml), (c) Control medium and TGFβ and test compounds (3 and 30 μM). The medium was collected after 24 h and the total mRNA extracted in Tri-reagent. The level of mRNA coding for α-smooth muscle actin (α-SMA) was assessed by real-time reverse transcription-polymerase chain reaction (rtRT-PCR) using primer couples that allow the amplification of α-SMA mRNA. Liver glyceraldehydes 3-phosphate dehydrogenase (GADPH) was used as a reference marker in this experiment. The inhibition of the TGTβ-induced overexpression of α-SMA mRNA by the test compounds was quantified.

[4] = tested on: 5-HT-induced contractions in guinea pig ileum; experiment: Inhibition of 5-HT-induced contractions in guinea pig ileum (Assay 3); conditions: Cavia porcellus, 5-HT 2.6 μM, read-out: Inhibition of 5-HT-induced contraction (%)
Method: as §2, §3

Chain of TRPV1 receptor (O35433 whole entry): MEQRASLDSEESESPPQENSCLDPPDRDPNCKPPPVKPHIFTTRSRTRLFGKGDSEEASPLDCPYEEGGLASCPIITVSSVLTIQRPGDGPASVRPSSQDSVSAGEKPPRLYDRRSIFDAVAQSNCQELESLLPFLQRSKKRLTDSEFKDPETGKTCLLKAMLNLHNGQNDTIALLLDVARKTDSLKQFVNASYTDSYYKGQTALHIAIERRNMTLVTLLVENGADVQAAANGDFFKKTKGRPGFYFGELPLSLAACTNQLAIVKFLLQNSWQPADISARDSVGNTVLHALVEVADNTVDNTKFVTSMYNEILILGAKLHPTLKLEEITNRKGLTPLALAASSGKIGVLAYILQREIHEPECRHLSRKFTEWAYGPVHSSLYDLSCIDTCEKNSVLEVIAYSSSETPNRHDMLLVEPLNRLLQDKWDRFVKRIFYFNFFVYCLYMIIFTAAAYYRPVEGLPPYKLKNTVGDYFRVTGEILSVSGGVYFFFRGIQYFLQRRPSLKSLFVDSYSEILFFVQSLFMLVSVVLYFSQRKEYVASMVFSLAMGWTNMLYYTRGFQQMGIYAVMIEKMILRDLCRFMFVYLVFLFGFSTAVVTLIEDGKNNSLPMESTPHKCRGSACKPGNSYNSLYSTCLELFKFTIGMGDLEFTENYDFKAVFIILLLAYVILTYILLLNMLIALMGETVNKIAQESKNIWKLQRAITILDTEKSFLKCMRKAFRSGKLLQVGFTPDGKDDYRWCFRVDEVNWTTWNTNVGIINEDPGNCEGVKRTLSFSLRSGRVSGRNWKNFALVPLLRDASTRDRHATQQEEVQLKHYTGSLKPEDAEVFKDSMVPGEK

SMILES	inhibition at 3 µM [1]	inhibition at 30 µM [1]	inhibition at 3 µM (5-lipoxygenase)	inhibition at 30 µM (5-lipoxygenase)	Decrease in cell viability (%) (WI-38 cells; 3 μM)	Decrease in cell viability (%) (WI-38 cells; 30 μM)	inhibition at 3 µM [2]	inhibition at 30 µM [2]	inhibition at 3 µM (TRPV1 receptor)	inhibition at 30 µM (TRPV1 receptor)	Emax at 3 µM (TRPV1 receptor)	Emax at 30 µM (TRPV1 receptor)	inhibition at 3 µM [3]	inhibition at 30 µM [3]	inhibition at 3 µM [4]	inhibition at 30 µM [4]
COc1cc(CCC(=O)C(C)(C)C(=O)C(C)(C)C)ccc1O [Compound 71, 1-(4-Hydroxy-3-methoxyphenyl)-4,4,6,6-tetramethylheptane-3,5-dione]	41%	95%	6%	48%	−1%	11%	0%	35%	26%	29%	48%	38%	-1%	20%	3%	53%
COc1cc(CCC(=O)C(C)(C)C(=O)c2ccc(C)cc2)ccc1O [Compound 81, 5-(4-Hydroxy-3-methoxyphenyl)-2,2-dimethyl-1-p-tolylpentane-1,3-dione]	62%	101%	64%	97%	3%	−7%	22%	94%	25%	-22%	45%	104%	-2%	55%	21%	95%
COc1cc(CCC(=O)CC(=O)c2ccc(F)cc2)ccc1O [Compound 20, 1-(4-Fluorophenyl)-5-(4-hydroxy-3-methoxyphenyl)-pentane-1,3-dione]	87%	99%	58%	98%	3%	10%	0%	22%	29%	4%	46%	96%	-8%	11%	2%	74%
COc1cc(CCC(=O)C(C)C(=O)C(C)(C)C)ccc1O (stereo not shown) [Compound 4, 1-(4-Hydroxy-3-methoxyphenyl)-4,6,6-trimethyl-heptane-3,5-dione]	49%	96%	15%	73%	−3%	10%	7%	14%	-58%	-24%	36%	63%	-3%	17%	0%	10%
COc1cc(CCC(=O)CC(=O)c2ccc(Cl)cc2C)ccc1O [Compound 76, 1-(4-Chloro-2-methylphenyl)-5-(4-hydroxy-3-methoxyphenyl)pentane-1,3-dione]	99%	101%	74%	99%	4%	26%	9%	81%	9%	4%	55%	107%	-1%	94%	26%	72%
COc1cc(CCC(=O)CC(=O)c2ccc(C)cc2)ccc1O [Compound 80, 5-(4-Hydroxy-3-methoxyphenyl)-1-p-tolylpentane-1,3-dione]	72%	102%	61%	97%	2%	1%	2%	62%	44%	-24%	68%	118%	4%	29%	14%	68%
COc1cc(CCC(=O)CC(=O)c2cccc3ccccc23)ccc1O [Compound 27, 5-(4-Hydroxy-3-methoxylphenyl)-1-(naphthalene-1-yl)-pentane-1,3-dione]	92%	99%	92%	98%	4%	40%	2%	68%	46%	-66%	85%	162%	6%	79%	1%	63%
